*1 amine or outer side, *2 acyl side, *3 side chain or, on linkers, in order; H or OH if unused. Where a SMILES comes first, the peptide text is derived from it. Bridges are numbered along the chain shown (N, C = ends). [ ]: non-standard residue; d: D form. The star is where a group is joined. ξ: configuration not given here. NMeAla(4-thiazolyl) = CN[C@@H](Cc1cscn1)C(=O)O; NMeF = CN[C@@H](Cc1ccccc1)C(=O)O; NMeGABA = CN(CCCC(=O)[*:2])[*:1]; ξThr(3R) = C[C@@H](O)C(N)C(=O)O; NMeD = CN[C@@H](CC(=O)O)C(=O)O; NMeL = CN[C@@H](CC(C)C)C(=O)O; NMeV = CN[C@H](C(=O)O)C(C)C; NMeA = CN[C@@H](C)C(=O)O; Piperidide = C1CCN(*)CC1; dNMeA = CN[C@H](C)C(=O)O; ξV = CC(C)C(N)C(=O)O; Sar = CNCC(=O)O; tBu = CC(C)(C)*
Assay: in vitro
Conditions: human

| Structure (SMILES) | Papp (Caco-2, Caco-2 (cm/sec)) | Papp (Caco-2, Caco-2 (cm/sec) Papp) |
| --- | --- | --- |
| CC(C)C[C@H]1C(=O)N[C@H](C(=O)N(C)[C@@H](Cc2ccccc2)C(=O)N[C@@H](C)C(=O)N2CCCCC2)CC(=O)N(C)[C@@H](C)C(=O)N[C@@H]([C@@H](C)O)C(=O)N(C)[C@@H](C)C(=O)N(C)[C@@H](CC(C)C)C(=O)N[C@@H](C(C)C)C(=O)N(C)[C@@H](Cc2ccccc2)C(=O)N[C@@H](Cc2ccccc2)C(=O)N1C [pd212] ([NMeA]T[NMeA][NMeL]V[NMeF]F[NMeL]D[NMeF]A-Piperidide; lactam N-9) | 14 nm/s |  |
| CC(C)C[C@@H]1NC(=O)[C@H](Cc2ccccc2)N(C)C(=O)[C@H](COC(C)(C)C)NC(=O)[C@H](Cc2ccccc2)N(C)C(=O)[C@H](C)N(C)C(=O)[C@H](CC(C)C)N(C)C(=O)[C@H](C)N(C)C(=O)C[C@@H](C(=O)N2CCCCC2)N(C)C(=O)[C@H](Cc2ccccc2)N(C)C(=O)[C@H]([C@@H](C)O)NC(=O)[C@H](C(C)C)N(C)C1=O [pd213] ([NMeA][NMeL][NMeA][NMeF]S(tBu)[NMeF]L[NMeV]T[NMeF][NMeD]-Piperidide; lactam N-11) | 13 nm/s |  |
| CC(C)C[C@@H]1NC(=O)[C@H](Cc2ccccc2)N(C)C(=O)[C@H](COC(C)(C)C)NC(=O)[C@H](Cc2ccccc2)N(C)C(=O)[C@H](C)N(C)C(=O)[C@H](CC(C)C)N(C)C(=O)[C@@H]2CCCN2C(=O)C[C@@H](C(=O)N2CCCCC2)NC(=O)[C@H](Cc2ccccc2)N(C)C(=O)[C@H]([C@@H](C)O)NC(=O)[C@H](CC(C)C)N(C)C1=O [pd214] (P[NMeL][NMeA][NMeF]S(tBu)[NMeF]L[NMeL]T[NMeF]D-Piperidide; lactam N-11) | 12 nm/s |  |
| CC(C)C[C@@H]1NC(=O)[C@H](Cc2ccccc2)N(C)C(=O)C(C(C)C)NC(=O)C[C@@H](C(=O)N2CCCCC2)NC(=O)[C@H](Cc2ccccc2)N(C)C(=O)[C@H](Cc2ccccc2)N(C)C(=O)[C@H](COC(C)(C)C)NC(=O)[C@H](CC(C)C)N(C)C(=O)CN(C)C(=O)[C@H]([C@@H](C)O)NC(=O)[C@H](CC(C)C)N(C)C1=O (stereo partly drawn) [pd215] ([ξV][NMeF]L[NMeL]T[Sar][NMeL]S(tBu)[NMeF][NMeF]D-Piperidide; lactam N-11) | 12 nm/s |  |
| CC(C)C[C@H]1C(=O)N[C@@H](C(C)C)C(=O)N(C)[C@@H](Cc2ccccc2)C(=O)N(C)[C@@H](Cc2ccccc2)C(=O)N[C@@H](COC(C)(C)C)C(=O)N(C)[C@@H](CC(C)C)C(=O)N[C@@H]([C@@H](C)O)C(=O)N(C)[C@@H](Cc2ccccc2)C(=O)N(C)[C@@H](CC(C)C)C(=O)N[C@H](C(=O)N2CCCCC2)CC(=O)N(C)CCCC(=O)N1C [pd216] ([NMeGABA][NMeL]V[NMeF][NMeF]S(tBu)[NMeL]T[NMeF][NMeL]D-Piperidide; lactam N-11) | 12 nm/s |  |
| CC(C)C[C@@H]1NC(=O)[C@H](Cc2ccccc2)N(C)C(=O)[C@H](C)NC(=O)C[C@@H](C(=O)N2CCCCC2)NC(=O)[C@H](Cc2ccccc2)N(C)C(=O)[C@H](Cc2ccccc2)N(C)C(=O)[C@H](COC(C)(C)C)NC(=O)[C@H](CC(C)C)N(C)C(=O)CN(C)C(=O)[C@H]([C@@H](C)O)NC(=O)[C@H](CC(C)C)N(C)C1=O [pd217] (A[NMeF]L[NMeL]T[Sar][NMeL]S(tBu)[NMeF][NMeF]D-Piperidide; lactam N-11) | 11 nm/s |  |
| CC(C)C[C@@H]1NC(=O)[C@H](CC(C)C)N(C)C(=O)[C@H](C)N(C)C(=O)C[C@@H](C(=O)N(C)[C@@H](Cc2ccccc2)C(=O)N[C@@H](C)C(=O)N2CCCCC2)NC(=O)[C@H]([C@@H](C)O)NC(=O)[C@H](CC(C)C)N(C)C(=O)[C@H](Cc2ccccc2)NC(=O)[C@H](Cc2ccccc2)N(C)C(=O)[C@H](CC(C)C)N(C)C1=O [pd218] ([NMeA][NMeL]L[NMeL][NMeF]F[NMeL]TD[NMeF]A-Piperidide; lactam N-9) | 11 nm/s |  |
| CC(C)C[C@@H]1NC(=O)[C@H](Cc2ccccc2)N(C)C(=O)[C@H](COC(C)(C)C)NC(=O)[C@H](Cc2ccccc2)N(C)C(=O)[C@H](C)N(C)C(=O)[C@H](CC(C)C)N(C)C(=O)[C@H]2CCCN2C(=O)C[C@@H](C(=O)N2CCCCC2)N(C)C(=O)[C@H](Cc2ccccc2)N(C)C(=O)[C@H]([C@@H](C)O)NC(=O)[C@H](C(C)C)N(C)C1=O [pd219] ([dP][NMeL][NMeA][NMeF]S(tBu)[NMeF]L[NMeV]T[NMeF][NMeD]-Piperidide; lactam N-11) | 11 nm/s |  |
| CC(C)C[C@@H]1NC(=O)[C@H](Cc2ccccc2)N(C)C(=O)[C@H](COC(C)(C)C)NC(=O)[C@H](Cc2ccccc2)N(C)C(=O)[C@H](C)N(C)C(=O)[C@H](CC(C)C)N(C)C(=O)[C@@H](C)NC(=O)C[C@@H](C(=O)N2CCCCC2)NC(=O)[C@H](Cc2ccccc2)N(C)C(=O)[C@H]([C@@H](C)O)NC(=O)[C@H](CC(C)C)N(C)C1=O [pd220] ([dA][NMeL][NMeA][NMeF]S(tBu)[NMeF]L[NMeL]T[NMeF]D-Piperidide; lactam N-11) | 11 nm/s |  |
| CC(C)C[C@@H]1NC(=O)[C@H](Cc2ccccc2)N(C)C(=O)[C@@H](C(C)C)NC(=O)C[C@@H](C(=O)N2CCCCC2)NC(=O)[C@H](Cc2ccccc2)N(C)C(=O)[C@H](Cc2ccccc2)N(C)C(=O)[C@H](C(C)C)NC(=O)[C@H](CC(C)C)N(C)C(=O)CN(C)C(=O)[C@H]([C@@H](C)O)NC(=O)[C@H](CC(C)C)N(C)C1=O [pd221] ([dV][NMeF]L[NMeL]T[Sar][NMeL]V[NMeF][NMeF]D-Piperidide; lactam N-11) | 11 nm/s |  |
| CC(C)C[C@@H]1NC(=O)[C@H](Cc2ccccc2)N(C)C(=O)[C@H](CC(C)C)N(C)C(=O)[C@@H](C)N(C)C(=O)C[C@@H](C(=O)N2CCCCC2)NC(=O)[C@H](CC(C)C)N(C)C(=O)[C@H](Cc2ccccc2)N(C)C(=O)[C@H]([C@@H](C)O)NC(=O)[C@H](Cc2ccccc2)N(C)C1=O [pd223] ([dNMeA][NMeL][NMeF]L[NMeF]T[NMeF][NMeL]D-Piperidide; lactam N-9) | 11 nm/s |  |
| CC(C)C[C@@H]1NC(=O)[C@H](Cc2ccccc2)N(C)C(=O)[C@H](C)N(C)C(=O)C[C@@H](C(=O)N2CCCCC2)NC(=O)[C@H](CC(C)C)N(C)C(=O)[C@H](Cc2ccccc2)N(C)C(=O)[C@H](Cc2ccccc2)NC(=O)[C@H](Cc2cscn2)N(C)C(=O)[C@H](C)N(C)C(=O)[C@H]([C@@H](C)O)NC(=O)[C@H](CC(C)C)N(C)C1=O [pd226] ([NMeA][NMeF]L[NMeL]T[NMeA][NMeAla(4-thiazolyl)]F[NMeF][NMeL]D-Piperidide; lactam N-11) |  | 6.8 nm/s |
| CC(C)C[C@@H]1NC(=O)[C@H](Cc2ccccc2)N(C)C(=O)C[C@@H](C(=O)N2CCCCC2)NC(=O)[C@H](CC(C)C)N(C)C(=O)CN(C)C(=O)[C@H]([C@@H](C)O)NC(=O)[C@H](Cc2ccccc2)N(C)C(=O)[C@H](Cc2ccccc2)N(C)C(=O)[C@H](CC(C)C)NC(=O)[C@H](Cc2ccccc2)N(C)C(=O)[C@H](CC(C)C)N(C)C1=O [pd227] ([NMeF]L[NMeL][NMeF]L[NMeF][NMeF]T[Sar][NMeL]D-Piperidide; lactam N-11) |  | 6.1 nm/s |
| CC(C)C[C@@H]1NC(=O)[C@H](CC(C)C)N(C)C(=O)C[C@@H](C(=O)N2CCCCC2)NC(=O)[C@H](CC(C)C)N(C)C(=O)CN(C)C(=O)[C@H]([C@@H](C)O)NC(=O)[C@H](Cc2cscn2)N(C)C(=O)[C@H](Cc2ccccc2)N(C)C(=O)[C@H](Cc2ccccc2)NC(=O)[C@H](Cc2ccccc2)N(C)C(=O)[C@H](CC(C)C)N(C)C1=O [pd228] ([NMeL]L[NMeL][NMeF]F[NMeF][NMeAla(4-thiazolyl)]T[Sar][NMeL]D-Piperidide; lactam N-11) |  | 5.8 nm/s |
| CC(C)C[C@@H]1NC(=O)[C@H](Cc2ccccc2)N(C)C(=O)[C@H](C(C)C)N(C)C(=O)C[C@@H](C(=O)N2CCCCC2)NC(=O)[C@H]([C@@H](C)O)NC(=O)[C@H](Cc2ccccc2)N(C)C(=O)[C@H](Cc2ccccc2)NC(=O)[C@H](Cc2ccccc2)N(C)C(=O)CN(C)C(=O)[C@H](C)N(C)C(=O)[C@H](CC(C)C)N(C)C1=O [pd229] ([NMeV][NMeF]L[NMeL][NMeA][Sar][NMeF]F[NMeF]TD-Piperidide; lactam N-11) |  | 4.1 nm/s |
| CC(C)C[C@@H]1NC(=O)[C@H](Cc2ccccc2)N(C)C(=O)[C@H]([C@@H](C)O)NC(=O)[C@H](Cc2ccccc2)NC(=O)[C@H](Cc2ccccc2)N(C)C(=O)C[C@@H](C(=O)N2CCCCC2)NC(=O)[C@H](C)N(C)C(=O)[C@H](CC(C)C)N(C)C(=O)CN(C)C(=O)[C@H](CC(C)C)N(C)C(=O)[C@H](Cc2ccccc2)N(C)C1=O [pd230] ([NMeF]FT[NMeF]L[NMeF][NMeL][Sar][NMeL][NMeA]D-Piperidide; lactam N-11) |  | 2.5 nm/s |
| CC(C)C[C@@H]1NC(=O)[C@H](Cc2ccccc2)N(C)C(=O)C([C@@H](C)O)NC(=O)[C@H](Cc2ccccc2)N(C)C(=O)CN(C)C(=O)[C@H](Cc2ccccc2)NC(=O)[C@H](CC(C)C)N(C)C(=O)[C@H](CC(C)C)NC(=O)[C@H](Cc2ccccc2)N(C)C(=O)[C@H](C)N(C)C(=O)C[C@@H](C(=O)N2CCCCC2)NC1=O (stereo partly drawn) [pd231] ([NMeA][NMeF]L[NMeL]F[Sar][NMeF][ξThr(3R)][NMeF]LD-Piperidide; lactam N-11) |  | 2.1 nm/s |
| CC(C)C[C@H]1C(=O)N(C)[C@@H](Cc2ccccc2)C(=O)N(C)[C@@H](Cc2ccccc2)C(=O)N[C@@H]([C@@H](C)O)C(=O)N(C)[C@@H](C)C(=O)N(C)[C@@H](Cc2ccccc2)C(=O)N[C@H](C(=O)N2CCCCC2)CC(=O)N(C)[C@@H](C)C(=O)N(C)[C@@H](CC(C)C)C(=O)N(C)[C@@H](Cc2ccccc2)C(=O)N[C@@H](C)C(=O)N1C [pd232] ([NMeA][NMeL][NMeF]A[NMeL][NMeF][NMeF]T[NMeA][NMeF]D-Piperidide; lactam N-11) |  | 1.9 nm/s |
| CC(C)C[C@H]1C(=O)N(C)[C@@H](Cc2ccccc2)C(=O)N(C)[C@@H](Cc2ccccc2)C(=O)N[C@@H]([C@@H](C)O)C(=O)N(C)[C@@H](C)C(=O)N(C)[C@@H](Cc2ccccc2)C(=O)N[C@H](C(=O)N2CCCCC2)CC(=O)N(C)[C@@H](C)C(=O)N(C)[C@@H](Cc2ccccc2)C(=O)N(C)[C@@H](CC(C)C)C(=O)N[C@@H](C(C)C)C(=O)N1C [pd233] ([NMeA][NMeF][NMeL]V[NMeL][NMeF][NMeF]T[NMeA][NMeF]D-Piperidide; lactam N-11) |  | 1.7 nm/s |
| CC(C)C[C@@H]1NC(=O)[C@H](CC(C)C)N(C)C(=O)[C@@H](C)NC(=O)C[C@@H](C(=O)N2CCCCC2)NC(=O)[C@H](Cc2ccccc2)N(C)C(=O)[C@H](Cc2ccccc2)N(C)C(=O)[C@H](C)N(C)C(=O)[C@H]([C@@H](C)O)NC(=O)[C@H](Cc2ccccc2)N(C)C(=O)[C@H](COC(C)(C)C)NC(=O)[C@H](Cc2ccccc2)N(C)C1=O [pd234] ([dA][NMeL]L[NMeF]S(tBu)[NMeF]T[NMeA][NMeF][NMeF]D-Piperidide; lactam N-11) |  | 1.5 nm/s |

Source: patent publication US20230096766A1, “AMINO ACID HAVING FUNCTIONAL GROUP CAPABLE OF INTERMOLECULAR HYDROGEN BONDING, PEPTIDE COMPOUND CONTAINING SAME AND METHOD FOR PRODUCTION THEREOF” (Chugai Seiyaku Kabushiki Kaisha, priority 2018, published 2023)
